Measured values: patent US20230117324A1, “OXAZINE MONOACYLGLYCEROL LIPASE (MAGL) INHIBITORS” (Hoffmann-La Roche Inc., priority 2018, published 2023)

Target: T1, MAGL (Homo sapiens, UniProt Q99685)
T1 sequence (Q99685 1-303): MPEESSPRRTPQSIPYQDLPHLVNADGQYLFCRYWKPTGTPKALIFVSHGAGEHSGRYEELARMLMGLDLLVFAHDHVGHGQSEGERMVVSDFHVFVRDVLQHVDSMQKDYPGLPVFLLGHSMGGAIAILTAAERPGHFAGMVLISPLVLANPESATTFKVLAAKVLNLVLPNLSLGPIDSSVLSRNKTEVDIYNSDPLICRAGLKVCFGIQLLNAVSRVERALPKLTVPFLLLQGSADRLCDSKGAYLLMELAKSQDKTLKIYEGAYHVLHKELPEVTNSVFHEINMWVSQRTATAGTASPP
Assay: MAGL inhibition, 2-AG assay (hydrolysis of 2-arachidonoylglycerol, arachidonic acid by mass spectrometry)
Type: biochemical
Settings: 2-AG assay (footnote [b])
Method in brief: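 Human MAGL […] was preincubated 15 min at RT with compound ([…], 3-fold steps) in 50 mM Tris, 1 mM EDTA, 0.01% Tween. 2-AG (8 μM) was then added for 30 min at RT. Arachidonic acid was quantified by RapidFire SPE–triple quadrupole MS in negative ESI as its ratio to a d8-arachidonic acid standard.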

Row | SMILES | IC50 [nM]
1 | O=C1CO[C@H]2CCN(C(=O)N3CC(c4ccc(-c5ccccc5)c(Cl)c4)C3)C[C@H]2N1 [Example 131, (4aR,8aS)-6-(3-(2-Chloro-[1,1′-biphenyl]-4-yl)azetidine-1-carbonyl)hexahydro-2H-pyrido[4,3-b][1,4]oxazin-3(4H)-one] | 0.4
2 | COc1ccc(C(c2ccccc2)C2CCN(C(=O)N3CC[C@@H]4OCC(=O)N[C@@H]4C3)CC2)cc1OC (single isomer, unassigned) [Example 87, (4aR,8aS)-6-(4-((S or R)-(3,4-Dimethoxyphenyl)(phenyl)methyl)piperidine-1-carbonyl)hexahydro-2H-pyrido[4,3-b][1,4]oxazin-3(4H)-one] | 0.4
3 | O=C1CO[C@H]2CCN(C(=O)N3CCC(C(Oc4ccc(F)cc4Cl)C(F)(F)F)CC3)C[C@H]2N1 (stereo partly drawn) [Example 81, (4aR,8aS)-6-(4-(1-(2-Chloro-4-fluorophenoxy)-2,2,2-trifluoroethyl)piperidine-1-carbonyl)hexahydro-2H-pyrido[4,3-b][1,4]oxazin-3(4H)-one] | 3
4 | O=C1CO[C@H]2CCN(C(=O)N3CCN(C(c4ccccc4)C(F)(F)F)CC3)C[C@H]2N1 (stereo partly drawn) [Example 49, (4aR,8aS)-6-(4-(2,2,2-Trifluoro-1-phenylethyl)piperazine-1-carbonyl)hexahydro-2H-pyrido[4,3-b][1,4]oxazin-3(4H)-one] | 1100
5 | O=C1CO[C@H]2CCN(C(=O)N3CCC(C(OCC(F)(F)F)c4ccc(F)cc4)CC3)C[C@H]2N1 (single isomer, unassigned) [Example 57, (4aR,8aS)-6-(4-((R or S)-(4-Fluorophenyl)(2,2,2-trifluoroethoxy)methyl)piperidine-1-carbonyl)hexahydro-2H-pyrido[4,3-b][1,4]oxazin-3(4H)-one] | 29
6 | O=C1CO[C@H]2CCN(C(=O)N3CCC(c4ccnc(C5CC5)c4)CC3)C[C@H]2N1 [Example 61, (4aR,8aS)-6-(4-(2-Cyclopropylpyridin-4-yl)piperidine-1-carbonyl)hexahydro-2H-pyrido[4,3-b][1,4]oxazin-3(4H)-one] | 569
7 | O=C1CO[C@H]2CCN(C(=O)N3CCC(C(OCC(F)(F)F)c4ccc(F)cc4)CC3)C[C@H]2N1 (single isomer, unassigned) [Example 58, (4aR,8aS)-6-(4-((S or R)-(4-Fluorophenyl)(2,2,2-trifluoroethoxy)methyl)piperidine-1-carbonyl)hexahydro-2H-pyrido[4,3-b][1,4]oxazin-3(4H)-one] | 7
8 | O=C1CO[C@H]2CCN(C(=O)N3CC(c4ccc(N5CCC6(CC6)C5)cc4)C3)C[C@H]2N1 [Example 179, (4aR,8aS)-6-(3-(4-(5-Azaspiro[2.4]heptan-5-yl)phenyl)azetidine-1-carbonyl)hexahydro-2H-pyrido[4,3-b][1,4]oxazin-3(4H)-one] | 1
9 | O=C1CO[C@H]2CCN(C(=O)N3CC(O)(c4ccc(Br)cc4)C3)C[C@H]2N1 [Example 123, (4aR,8aS)-6-(3-(4-Bromophenyl)-3-hydroxyazetidine-1-carbonyl)hexahydro-2H-pyrido[4,3-b][1,4]oxazin-3(4H)-one] | 226
10 | O=C1CO[C@H]2CCN(C(=O)N3CC(c4ccc(N5CC(OC(F)(F)F)C5)cc4)C3)C[C@H]2N1 [Example 153, (4aR,8aS)-6-(3-(4-(3-(Trifluoromethoxy)azetidin-1-yl)phenyl)azetidine-1-carbonyl)hexahydro-2H-pyrido[4,3-b][1,4]oxazin-3(4H)-one] | 2
11 | CC(OC1CN(c2ccc(C3CN(C(=O)N4CC[C@@H]5OCC(=O)N[C@@H]5C4)C3)cc2)C1)C(F)(F)F (stereo partly drawn) [Example 138, (4aR,8aS)-6-(3-(4-(3-((1,1,1-Trifluoropropan-2-yl)oxy)azetidin-1-yl)phenyl)azetidine-1-carbonyl)hexahydro-2H-pyrido[4,3-b][1,4]oxazin-3(4H)-one] | 1
12 | Cc1noc(CC(c2ccc(F)cc2)C2CCN(C(=O)N3CC[C@@H]4OCC(=O)N[C@@H]4C3)CC2)n1 (single isomer, unassigned) [Example 60, (4aR,8aS)-6-(4-((S or R)-1-(4-Fluorophenyl)-2-(3-methyl-1,2,4-oxadiazol-5-yl)ethyl)piperidine-1-carbonyl)hexahydro-2H-pyrido[4,3-b][1,4]oxazin-3(4H)-one] | 67
13 | COc1ccc(C(c2ccccc2)C2CCN(C(=O)N3CC[C@@H]4OCC(=O)N[C@@H]4C3)CC2)cc1OC (single isomer, unassigned) [Example 74, (4aR,8aS)-6-(4-((R or S)-(3,4-Dimethoxyphenyl)(phenyl)methyl)piperidine-1-carbonyl)hexahydro-2H-pyrido[4,3-b][1,4]oxazin-3(4H)-one] | 2

More lines, now with the values ahead:

Row | IC50 [nM] | SMILES
14 | 0.07 | CC(C)(C)Cc1ccc(C2CN(C(=O)N3CC[C@@H]4OCC(=O)N[C@@H]4C3)C2)cc1 [Example 261, (4aR,8aS)-6-[3-[4-(2,2-Dimethylpropyl)phenyl]azetidine-1-carbonyl]-4,4a,5,7,8,8a-hexahydropyrido[4,3-b][1,4]oxazin-3-one]
15 | 4 | O=C1CO[C@H]2CCN(C(=O)N3CC(c4ccc(C5(C(F)(F)F)CC5)cc4)C3)C[C@H]2N1 [Example 188, (4aR,8aS)-6-[3-[4-[1-(Trifluoromethyl)cyclopropyl]phenyl]azetidine-1-carbonyl]-4,4a,5,7,8,8a-hexahydropyrido[4,3-b][1,4]oxazin-3-one]
16 | 68 | CS(=O)(=O)c1cccc(C(c2ccccn2)C2CCN(C(=O)N3CC[C@@H]4OCC(=O)N[C@@H]4C3)CC2)c1 (single isomer, unassigned) [Example 189, (4aR,8aS)-6-[4-[(R or S)-(3-methylsulfonylphenyl)-(2-pyridyl)methyl]piperidine-1-carbonyl]-4,4a,5,7,8,8a-hexahydropyrido[4,3-b][1,4]oxazin-3-one]
17 | 14 | CC1(F)CN(c2ccc(C3CN(C(=O)N4CC[C@@H]5OCC(=O)N[C@@H]5C4)C3)cc2)C1 [Example 200, (4aR,8aS)-6-[3-[4-(3-Fluoro-3-methyl-azetidin-1-yl)phenyl]azetidine-1-carbonyl]-4,4a,5,7,8,8a-hexahydropyrido[4,3-b][1,4]oxazin-3-one]
18 | 16 | O=C1CO[C@H]2CCN(C(=O)N3CCC(N4CCc5cc(Cl)ccc54)CC3)C[C@H]2N1 [Example 263, (4aR,8aS)-6-[4-(5-Chloroindolin-1-yl)piperidine-1-carbonyl]-4,4a,5,7,8,8a-hexahydropyrido[4,3-b][1,4]oxazin-3-one]
19 | 1 | Cn1nc(OC(c2ccc(F)cc2)C2CCN(C(=O)N3CC[C@@H]4OCC(=O)N[C@@H]4C3)CC2)cc1C(F)(F)F (stereo partly drawn) [Example 251, (4aR,8aS)-6-(4-((4-Fluorophenyl)((1-methyl-5-(trifluoromethyl)-1H-pyrazol-3-yl)oxy)methyl)piperidine-1-carbonyl)hexahydro-2H-pyrido[4,3-b][1,4]oxazin-3(4H)-one]
20 | 2 | CC(C)(C)OC(=O)NCCOCCOCCC(=O)NCCOc1cccc(C(c2ccccc2)C2CCN(C(=O)N3CC[C@@H]4OCC(=O)N[C@@H]4C3)CC2)c1 (stereo partly drawn) [Example 256, tert-Butyl N-[2-[2-[3-[2-[3-[[1-[(4aR,8aS)-3-oxo-4,4a,5,7,8,8a-hexahydropyrido[4,3-b][1,4]oxazine-6-carbonyl]-4-piperidyl]-phenyl-methyl]phenoxy]ethylamino]-3-oxo-propoxy]ethoxy]ethyl]carbamate]
